Measurements from PubChem BioAssay AID1963862 (Molecular Pharmacology Branch, DTP, NCI, 2024).

Test system: KRAS patient-derived spheroids with HUVEC/MSC, viability
Assay: Anticancer human tumor 941728-121-R-J1-PDC patient-derived lung adenocarcinoma cell line growth inhibition [KRAS2]
Details: for IC50: curve of first compound; for viability, T/C: stronger effect = lower value
Summary of the method: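 Combination screen of spheroid viability in tumor-cell co-cultures with endothelial (HUVEC) and mesenchymal stem cell stroma. Each agent was tested in half-log dilutions, topping at clinical Cmax or at 10 microM without a known Cmax.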

[1] = second compound 0.1 µM, first compound 0.0316 µM
[2] = second compound 0.1 µM, first compound 0.1 µM
[3] = second compound 0.1 µM, first compound 0.316 µM
[4] = second compound 0.1 µM, first compound 1 µM
[5] = second compound 0.1 µM, first compound 3.16 µM
[6] = second compound 0.1 µM, first compound 10 µM
[7] = second compound 0.316 µM, first compound 0.0316 µM
[8] = second compound 0.316 µM, first compound 0.1 µM
[9] = second compound 0.316 µM, first compound 0.316 µM
[10] = second compound 0.316 µM, first compound 1 µM
[11] = second compound 0.316 µM, first compound 3.16 µM
[12] = second compound 0.316 µM, first compound 10 µM
[13] = second compound 1 µM, first compound 0.0316 µM
[14] = second compound 1 µM, first compound 0.1 µM
[15] = second compound 1 µM, first compound 0.316 µM
[16] = second compound 1 µM, first compound 1 µM
[17] = second compound 1 µM, first compound 3.16 µM
[18] = second compound 1 µM, first compound 10 µM
[19] = second compound 3.16 µM, first compound 0.0316 µM
[20] = second compound 3.16 µM, first compound 0.1 µM
[21] = second compound 3.16 µM, first compound 0.316 µM
[22] = second compound 3.16 µM, first compound 1 µM
[23] = second compound 3.16 µM, first compound 3.16 µM
[24] = second compound 3.16 µM, first compound 10 µM
[25] = second compound 10 µM, first compound 0.0316 µM
[26] = second compound 10 µM, first compound 0.1 µM
[27] = second compound 10 µM, first compound 0.316 µM
[28] = second compound 10 µM, first compound 1 µM
[29] = second compound 10 µM, first compound 3.16 µM
[30] = second compound 10 µM, first compound 10 µM
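Note: spheroids exposed to agents for seven days before readout.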

| SMILES | IC50 (second compound 0.1 µM) [nM] | IC50 (second compound 0.316 µM) [nM] | IC50 (second compound 1 µM) [nM] | IC50 (second compound 3.16 µM) [nM] | IC50 (second compound 10 µM) [nM] | viability, T/C [1] [%] | viability, T/C [2] [%] | viability, T/C [3] [%] | viability, T/C [4] [%] | viability, T/C [5] [%] | viability, T/C [6] [%] | viability, T/C [7] [%] | viability, T/C [8] [%] | viability, T/C [9] [%] | viability, T/C [10] [%] | viability, T/C [11] [%] | viability, T/C [12] [%] | viability, T/C [13] [%] | viability, T/C [14] [%] | viability, T/C [15] [%] | other results |
| --- | --- | --- | --- | --- | --- | --- | --- | --- | --- | --- | --- | --- | --- | --- | --- | --- | --- | --- | --- | --- | --- |
| COc1cc(Nc2ncc3c(n2)-c2ccc(Cl)cc2C(c2c(F)cccc2OC)=NC3)ccc1C(=O)O + CC1OCC2(CCN(c3cnc(Sc4ccnc(N)c4Cl)c(N)n3)CC2)C1N | 137 | < 31.6 | < 31.6 | < 31.6 | < 31.6 | 53.1 | 47.6 | 48.5 | 48.5 | 50.3 | 41.6 | 42.3 | 41.9 | 40.2 | 39.2 | 36.6 | 35.3 | 29.8 | 33.4 | 36.6 | viability, T/C [16]: 34.6%; viability, T/C [17]: 28%; viability, T/C [18]: 23.9%; viability, T/C [19]: 23.7%; viability, T/C [20]: 25.4%; viability, T/C [21]: 26.9%; viability, T/C [22]: 26.6%; viability, T/C [23]: 13%; viability, T/C [24]: 14.5%; viability, T/C [25]: 16%; viability, T/C [26]: 15.4%; viability, T/C [27]: 13.4%; viability, T/C [28]: 13.6%; viability, T/C [29]: 12.4%; viability, T/C [30]: 9.18% |
| COc1cc2nccc(Oc3ccc(NC(=O)C4(C(=O)Nc5ccc(F)cc5)CC4)cc3)c2cc1OC + CC1OCC2(CCN(c3cnc(Sc4ccnc(N)c4Cl)c(N)n3)CC2)C1N | < 31.6 | < 31.6 | < 31.6 | < 31.6 | < 31.6 | 48.9 | 40 | 31.5 | 29.4 | 34.2 | 26.9 | 28.8 | 26.2 | 29 | 27.8 | 14.6 | 16.6 | 25.3 | 25.9 | 24.1 | viability, T/C [16]: 15.5%; viability, T/C [17]: 8.65%; viability, T/C [18]: 7.11%; viability, T/C [19]: 25.3%; viability, T/C [20]: 20.1%; viability, T/C [21]: 11.7%; viability, T/C [22]: 12%; viability, T/C [23]: 7.91%; viability, T/C [24]: 4.69%; viability, T/C [25]: 20.7%; viability, T/C [26]: 14.8%; viability, T/C [27]: 12.2%; viability, T/C [28]: 8.99%; viability, T/C [29]: 4.63%; viability, T/C [30]: 4.36% |
| O=C(c1cc(Cc2n[nH]c(=O)c3ccccc23)ccc1F)N1CCN(C(=O)C2CC2)CC1 + CC1OCC2(CCN(c3cnc(Sc4ccnc(N)c4Cl)c(N)n3)CC2)C1N | < 31.6 | < 31.6 | 87.3 | < 31.6 | < 31.6 | 50.3 | 47.7 | 48.3 | 53.1 | 62.1 | 69.7 | 41.9 | 45.4 | 52.8 | 53.7 | 57.8 | 60.7 | 65.1 | 45 | 45.7 | viability, T/C [16]: 41.6%; viability, T/C [17]: 49%; viability, T/C [18]: 58.6%; viability, T/C [19]: 31.9%; viability, T/C [20]: 36.3%; viability, T/C [21]: 35.3%; viability, T/C [22]: 38.2%; viability, T/C [23]: 41.3%; viability, T/C [24]: 45.7%; viability, T/C [25]: 26.1%; viability, T/C [26]: 22.3%; viability, T/C [27]: 29.6%; viability, T/C [28]: 28.5%; viability, T/C [29]: 35.1%; viability, T/C [30]: 29.3% |
